Among the data in BindingDB's records for doi:10.1016/s0960-894x(02)00988-5 (Merck Research Laboratories, 2003) are IC50 values, retold here.

pIC50: −log10 of the molar value.

One may read the pIC50 as the IC50 on a negative log10 scale, so that one unit is a factor of ten. Read a low pIC50 as a high IC50.

The first experiment in a line: Inhibition over 48 hr of BAL strain HIV infrction of HeLa Magi cells expressing CCR5.
On to `CCCN(c1ccccn1)C1CCN(C[C@H]2CN(C(=O)c3ccccc3Cl)C[C@@H]2c2ccccc2)CC1` [(2-Chloro-phenyl)-{(3S,4S)-3-phenyl-4-[4-(propyl-pyridin-2-yl-amino)-piperidin-1-ylmethyl]-pyrrolidin-1-yl}-methanone], for which the pIC50 is 6.52.
On the same count and under the same terms, as for `CCCN(c1ncccn1)C1CCN(C[C@H]2CN([C@@H](C(=O)O)C3CCCCC3)C[C@@H]2c2ccccc2)CC1` [(R)-2-cyclohexyl-2-((3S,4S)-3-phenyl-4-((4-(propyl(pyrimidin-2-yl)amino)piperidin-1-yl)methyl)pyrrolidin-1-yl)acetic acid], the figure is 7.48; as for `CCCN(c1ccncn1)C1CCN(C[C@H]2CN([C@H](CC3CCC3)C(=O)O)C[C@@H]2c2cccc(F)c2)CC1` [(R)-3-Cyclobutyl-2-{(3S,4S)-3-(3-fluoro-phenyl)-4-[4-(propyl-pyrimidin-4-yl-amino)-piperidin-1-ylmethyl]-pyrrolidin-1-yl}-propionic acid], 7.48; as for `CCCN(c1ccccn1)C1CCN(C[C@H]2CN([C@@H](C(=O)O)C3CCCCC3)C[C@@H]2c2ccccc2)CC1` [(R)-Cyclohexyl-{(3S,4S)-3-phenyl-4-[4-(propyl-pyridin-2-yl-amino)-piperidin-1-ylmethyl]-pyrrolidin-1-yl}-acetic acid], 7.00.
On to `O=C(C1CCCCC1)N1C[C@H](CN2CCC(N(CC3CC3)c3ccccn3)CC2)[C@@H](c2ccccc2)C1` [Cyclohexyl-{(3S,4S)-3-[4-(cyclopropylmethyl-pyridin-2-yl-amino)-piperidin-1-ylmethyl]-4-phenyl-pyrrolidin-1-yl}-methanone], for which the pIC50 was 7.48.
`CCCN(c1ccccn1)C1CCN(C[C@H]2CN(C(=O)C3CCC3)C[C@@H]2c2ccccc2)CC1` [cyclobutyl((3S,4S)-3-phenyl-4-((4-(propyl(pyridin-2-yl)amino)piperidin-1-yl)methyl)pyrrolidin-1-yl)methanone]: the negative-log IC50 (pIC50) was 6.52.
Take `CCCN(c1ccccn1)C1CCN(C[C@H]2CN(C(=O)C3CCCCC3)C[C@@H]2c2ccccc2)CC1` [cyclohexyl((3S,4S)-3-phenyl-4-((4-(propyl(pyridin-2-yl)amino)piperidin-1-yl)methyl)pyrrolidin-1-yl)methanone]: the pIC50 is 7.00.
Regarding `CCCN(c1ccccn1)C1CCN(C[C@H]2CN(C(=O)N3CCCC3)C[C@@H]2c2ccccc2)CC1` [{(3S,4S)-3-Phenyl-4-[4-(propyl-pyridin-2-yl-amino)-piperidin-1-ylmethyl]-pyrrolidin-1-yl}-pyrrolidin-1-yl-methanone], the pIC50 is 6.52.

Assay in a further experiment: as above
The source holds these as a separate data set.
`C=CCN(c1ccc(C(F)(F)F)cn1)C1CCN(C[C@H]2CN(C(=O)C3CCCCC3)C[C@@H]2c2ccccc2)CC1` [((3S,4S)-3-{4-[Allyl-(5-trifluoromethyl-pyridin-2-yl)-amino]-piperidin-1-ylmethyl}-4-phenyl-pyrrolidin-1-yl)-cyclohexyl-methanone] showed a pIC50 of 7.43.
Compound `CCCN(c1nccc(OC)n1)C1CCN(C[C@H]2CN([C@H](CC3CCC3)C(=O)O)C[C@@H]2c2cccc(F)c2)CC1` [(R)-3-Cyclobutyl-2-((3S,4S)-3-(3-fluoro-phenyl)-4-{4-[(4-methoxy-pyrimidin-2-yl)-propyl-amino]-piperidin-1-ylmethyl}-pyrrolidin-1-yl)-propionic acid] had a pIC50 of 7.00.
`CCCN(c1ncc(F)cn1)C1CCN(C[C@H]2CN([C@H](CC3CCC3)C(=O)O)C[C@@H]2c2cccc(F)c2)CC1` [(R)-3-Cyclobutyl-2-((3S,4S)-3-(3-fluoro-phenyl)-4-{4-[(5-fluoro-pyrimidin-2-yl)-propyl-amino]-piperidin-1-ylmethyl}-pyrrolidin-1-yl)-propionic acid]: the pIC50 is 7.48.
Compound `CCCN(c1nccc(C(F)(F)F)n1)C1CCN(C[C@H]2CN([C@H](CC3CCC3)C(=O)O)C[C@@H]2c2cccc(F)c2)CC1` [(R)-3-Cyclobutyl-2-((3S,4S)-3-(3-fluoro-phenyl)-4-{4-[propyl-(4-trifluoromethyl-pyrimidin-2-yl)-amino]-piperidin-1-ylmethyl}-pyrrolidin-1-yl)-propionic acid] gave a pIC50 of 6.35.
On to `CCCN(c1ncc(C(F)(F)F)cn1)C1CCN(C[C@H]2CN([C@H](CC3CCC3)C(=O)O)C[C@@H]2c2cccc(F)c2)CC1` [(R)-3-Cyclobutyl-2-((3S,4S)-3-(3-fluoro-phenyl)-4-{4-[propyl-(5-trifluoromethyl-pyrimidin-2-yl)-amino]-piperidin-1-ylmethyl}-pyrrolidin-1-yl)-propionic acid], for which the pIC50 was 7.00.
`O=C(O)[C@@H](CC1CCC1)N1C[C@H](CN2CCC(N(CC3CC3)c3ncccn3)CC2)[C@@H](c2cccc(F)c2)C1` [(R)-3-Cyclobutyl-2-[(3S,4S)-3-[4-(cyclopropylmethyl-pyrimidin-2-yl-amino)-piperidin-1-ylmethyl]-4-(3-fluoro-phenyl)-pyrrolidin-1-yl]-propionic acid]: the pIC50 is 7.96.
In turn, `CCN(c1ncccn1)C1CCN(C[C@H]2CN([C@H](CC3CCC3)C(=O)O)C[C@@H]2c2cccc(F)c2)CC1` [(R)-3-Cyclobutyl-2-[(3S,4S)-3-[4-(ethyl-pyrimidin-2-yl-amino)-piperidin-1-ylmethyl]-4-(3-fluoro-phenyl)-pyrrolidin-1-yl]-propionic acid] had a pIC50 of 7.00.
For the compound `CCCN(c1cncnc1)C1CCN(C[C@H]2CN([C@H](CC3CCC3)C(=O)O)C[C@@H]2c2cccc(F)c2)CC1` [(R)-3-Cyclobutyl-2-{(3S,4S)-3-(3-fluoro-phenyl)-4-[4-(propyl-pyrimidin-5-yl-amino)-piperidin-1-ylmethyl]-pyrrolidin-1-yl}-propionic acid], the pIC50 is 7.96.
Regarding `CCCN(c1ncccn1)C1CCN(C[C@H]2CN([C@H](CC3CCC3)C(=O)O)C[C@@H]2c2cccc(F)c2)CC1` [(R)-3-cyclobutyl-2-((3S,4S)-3-(3-fluorophenyl)-4-((4-(propyl(pyrimidin-2-yl)amino)piperidin-1-yl)methyl)pyrrolidin-1-yl)propanoic acid], the negative-log IC50 (pIC50) was 7.96.
Regarding `CCCN(c1ncccn1)C1CCN(C[C@H]2CN([C@@H](C(=O)O)C3CCCCC3)C[C@@H]2c2cccc(F)c2)CC1` [(R)-Cyclohexyl-{(3S,4S)-3-(3-fluoro-phenyl)-4-[4-(propyl-pyrimidin-2-yl-amino)-piperidin-1-ylmethyl]-pyrrolidin-1-yl}-acetic acid], the pIC50 is 7.48.
On to `CCCN(c1cccnc1)C1CCN(C[C@H]2CN([C@@H](C(=O)O)C3CCCCC3)C[C@@H]2c2ccccc2)CC1` [(R)-Cyclohexyl-{(3S,4S)-3-phenyl-4-[4-(propyl-pyridin-3-yl-amino)-piperidin-1-ylmethyl]-pyrrolidin-1-yl}-acetic acid], for which the pIC50 is 7.48.
Still for that read-out and setting: the figure for `C=CCN(c1ccccn1)C1CCN(C[C@H]2CN(C(=O)C3CCCCC3)C[C@@H]2c2ccccc2)CC1` [{(3S,4S)-3-[4-(Allyl-pyridin-2-yl-amino)-piperidin-1-ylmethyl]-4-phenyl-pyrrolidin-1-yl}-cyclohexyl-methanone] is 7.96.
Compound `C=CCN(c1cccnc1)C1CCN(C[C@H]2CN(C(=O)C3CCCCC3)C[C@@H]2c2ccccc2)CC1` [{(3S,4S)-3-[4-(Allyl-pyridin-3-yl-amino)-piperidin-1-ylmethyl]-4-phenyl-pyrrolidin-1-yl}-cyclohexyl-methanone] gave a pIC50 of 7.92.
